In brackets after ≈: the same amount, converted by molar mass.
Assays:
[1] = Solid-state stability evaluation (XRPD, HPLC); assay type: physicochemical
Procedure: The following 6 test samples were placed under 25° C./60% RH and 40° C./75% RH conditions for 1 week, and then the physical and chemical stability of the samples was tested by XRPD and HPLC.
At the same time, after the p-toluenesulfonate salt crystal form A-II and crystal form B-III solids were placed at 80° C. for 24 hours, the physical and chemical stability of the samples were tested by XRPD and HPLC.

[2] = Equilibrium solubility in water; assay type: physicochemical; settings: H2O, room temperature, 24 hours; listed as p-Toluenesulfonate salt crystal form B-III
Procedure: The sample was centrifuged and filtered, and the filtrate was tested by HPLC.

[3] = Hygroscopicity by dynamic moisture sorption (DVS); assay type: physicochemical; settings: for Moisture adsorption (25° C./80% RH) / Hygroscopicity: DVS
Procedure: Dynamic moisture sorption (DVS): The curves were collected on a DVS Intrinsic of SMS (Surface Measurement Systems). At 25° C., the humidity range was 0% RH-95% RH, the step was 10% (the last step was 5%), and the dm/dt was 0.002%/min.
The hygroscopicity of the free compound of formula (I), mucate salt crystal form A-I, p-toluenesulfonate salt crystal forms A-II and B-III, di-p-toluenesulfonate salt crystal form A-IV and phosphate salt crystal form A-V was evaluated by dynamic moisture sorption instrument (DVS). Starting from 0% relative humidity (0% RH), the test collected the mass change percentage of the samples under constant temperature of 25° C. with humidity changes (0% RH-95% RH-0% RH).

[4] = system: human lung cancer cells EBC-1; assay: Efficacy in nude mouse tumor-bearing model of human lung cancer cells EBC-1; assay type: in vivo, Balb/c nude mouse
Source text: In this assay, the free compound of formula (I) of the present application and different salts of the compound prepared in Examples 1, 2 and 5 were orally administered to a nude mouse tumor-bearing model of human lung cancer cells EBC-1 to study their effects on tumor growth.
Preparation of test compounds: an appropriate weight of the test compound (including the free form of the compound of formula (I) and different salts of the compound prepared in Examples 1, 2 and 5) was weighed, completely suspended/dissolved in an appropriate volume of 0.1% sodium carboxymethyl cellulose, stirred and vortexed to give a uniform solution or suspension.
Methods: All assays were authorized by the Animal Welfare Committee. EBC-1 in the logarithmic growth phase was inoculated into immune-deficient nude mice (BALB/c nude, female, 6-8 weeks old, weighing 18±2 g), subcutaneously on the right back, with a cell inoculation amount of 5×10^6/mouse. After the tumor grew to 150-200 mm^3, the animals were randomly divided into groups, 6 mice per group. The dose of each test substance was set at 15 mg/kg and 7.5 mg/kg (both based on the concentration of the effective formula (I) compound), and administered once a day for about 3 weeks. The test compounds were freshly prepared each day before use. During the assay, the tumor diameter was measured twice a week, and the mice were weighed at the same time. The calculation formula of tumor volume (TV) is: TV=1/2×a×b^2, where a and b represent length and width, respectively. The relative tumor volume (RTV) was calculated based on the measurement results, and the calculation formula is: RTV=Vt/V0, wherein V0 is the tumor volume measured at the time of cage grouping and dosing initiation (i.e., d0), and Vt is the tumor volume at each measurement. The evaluation index of antitumor activity is the relative tumor proliferation rate T/C (%), calculated as follows: T/C (%)=(TRTV/CRTV)×100%, TRTV: RTV of the treatment group; CRTV: RTV of the negative control group. T and C represent the average tumor volume at a certain time point in the drug administration group and the control group, respectively.

[5] = Dynamic solubility in water, SGF, FaSSIF and FeSSIF; assay type: physicochemical; settings: for solubility at 1 h / solubility at 2 h / solubility at 4 h / solubility at 24 h: 37 °C, thermodynamic from solid
Procedure: Biological solvent Preparation • 1. […] 67.5 μL of concentrated hydrochloric acid (12 M) was added and the mixture was adjusted to a pH value of 1.8 with 1 M hydrochloric acid or 1 M NaOH solution. Purified water was added to make up to volume. • 2. Preparation of Fasted State Simulated Intestinal Fluid (FaSSIF): 0.17 g of anhydrous NaH2PO4, 0.021 g of NaOH, and 0.31 g of NaCl were weighed into a 50-mL volumetric flask. About 48 mL of purified water was added to dissolve the mixture completely, and the solution was adjusted to a pH value of 6.5 with 1 M hydrochloric acid or 1 M NaOH solution. Purified water was added to make up to volume. 0.11 g of SIF powder was added and dissolved completely. • 3. Preparation of Fed State Simulated Intestinal Fluid (FeSSIF): 0.41 mL of glacial acetic acid, 0.20 g of NaOH and 0.59 g of NaCl were weighed into a 50-mL volumetric flask. About 48 mL of purified water was added to dissolve the mixture completely, and the solution was adjusted to a pH value of 5.0 with 1 M hydrochloric acid or 1 M NaOH solution. Purified water was added to make up to volume. 0.56 g of SIF powder was added and dissolved completely.
The dynamic solubility of the free state, the mucate salt crystal form A-I, the p-toluenesulfonate salt crystal form A-II, the di-p-toluenesulfonate salt crystal form A-IV and the phosphate salt crystal form A-V of the compound of formula (I) in water and three biological solvents was evaluated.
The samples at each time point were centrifuged and filtered (0.45 μm PTFE filter head), and the HPLC concentration and pH value of the filtrate were determined.

[6] = 40° C./75% RH, 1 week, listed as p-Toluenesulfonate salt crystal form B-III
[7] = 80° C., 24 hours, listed as p-Toluenesulfonate salt crystal form B-III
[8] = pH 1.8, simulated gastric fluid

O=C(Nc1ccc(F)cc1)C1(C(=O)Nc2ccc(Oc3ccnc4cc(OCCCN5CCOCC5)c5c(c34)OCCO5)c(F)c2)CC1 [Example 3, N-(3-fluoro-4-((5-(3-morpholinopropoxy)-2,3-dihydro-[1,4]dioxano[2,3-f]quinolin-10-yl)oxy)phenyl)-N-(4-fluorophenyl)cyclopropane-1,1-dicarboxamide]
Purity ([1]; 25° C./60% RH, 1 week, listed as p-Toluenesulfonate salt crystal form B-III): 99.68 area % | Purity [1, 6]: 99.63 area % | Purity/initial purity [1, 6]: 99.8% | Change of Crystal form ([1]; 80° C., 24 hours): no | Purity [1, 7]: 99.56 area % | Purity/initial purity [1, 7]: 99.8% | Purity ([1]; Starting, listed as p-Toluenesulfonate salt crystal form B-III): 99.79 area % | Solubility (equilibrium) [2]: 1300 µg/mL | Moisture adsorption (25° C./80% RH) ([3]; listed as p-Toluenesulfonate salt crystal form B-III): 3.13% | Hygroscopicity ([3]; 25° C., listed as p-Toluenesulfonate salt crystal form B-III): Hygroscopic

O=C(Nc1ccc(F)cc1)C1(C(=O)Nc2ccc(Oc3ccnc4cc(OCCCN5CCOCC5)c5c(c34)OCCO5)c(F)c2)CC1 [Free state, N-(3-fluoro-4-((5-(3-morpholinopropoxy)-2,3-dihydro-[1,4]dioxano[2,3-f]quinolin-10-yl)oxy)phenyl)-N-(4-fluorophenyl)cyclopropane-1,1-dicarboxamide]
Change of Crystal form ([1]; 25° C./60% RH, 1 week): no | Purity ([1]; 25° C./60% RH, 1 week): 99.36 area % | Purity/initial purity ([1]; 25° C./60% RH, 1 week): 99.9% | Change of Crystal form ([1]; 40° C./75% RH, 1 week): no | Purity ([1]; 40° C./75% RH, 1 week): 99.39 area % | Purity/initial purity ([1]; 40° C./75% RH, 1 week): 99.9% | Change of Crystal form ([1]; Starting): no | Purity ([1]; Starting): 99.44 area % | Whether the crystal form changes after DVS test ([3]; 0% RH-95% RH-0% RH, 25° C.): no | Hygroscopicity ([3]; 25° C.): Almost no | Moisture adsorption (25° C./80% RH) [3]: 0.11% | T/C (relative tumor proliferation rate) ([4]; 7.5 mg/kg oral once a day, day 3): 80.2% | T/C (relative tumor proliferation rate) ([4]; 7.5 mg/kg oral once a day, day 7): 68.3% | T/C (relative tumor proliferation rate) ([4]; 7.5 mg/kg oral once a day, day 10): 77.9% | T/C (relative tumor proliferation rate) ([4]; 7.5 mg/kg oral once a day, day 14): 69.3% | T/C (relative tumor proliferation rate) ([4]; 7.5 mg/kg oral once a day, day 18): 81.3% | T/C (relative tumor proliferation rate) ([4]; 7.5 mg/kg oral once a day, day 21): 70.68% | T/C (relative tumor proliferation rate) ([4]; 15 mg/kg oral once a day, day 3): 88.8% | T/C (relative tumor proliferation rate) ([4]; 15 mg/kg oral once a day, day 7): 76.9% | T/C (relative tumor proliferation rate) ([4]; 15 mg/kg oral once a day, day 10): 80.4% | T/C (relative tumor proliferation rate) ([4]; 15 mg/kg oral once a day, day 14): 66.4% | T/C (relative tumor proliferation rate) ([4]; 15 mg/kg oral once a day, day 18): 72.2% | T/C (relative tumor proliferation rate) ([4]; 15 mg/kg oral once a day, day 21): 64.60% | S (dynamic solubility) [5]: <LOQ | solubility at 1 h [5, 8]: 5700 µg/mL (≈ 8630 µM) | solubility at 2 h [5, 8]: 5800 µg/mL (≈ 8780 µM) | solubility at 4 h [5, 8]: 5700 µg/mL (≈ 8630 µM) | solubility at 24 h [5, 8]: 5700 µg/mL (≈ 8630 µM) | solubility at 1 h ([5]; pH 5, fessif): 640 µg/mL (≈ 969 µM) | solubility at 2 h ([5]; pH 5, fessif): 710 µg/mL (≈ 1070 µM) | solubility at 4 h ([5]; pH 5, fessif): 710 µg/mL (≈ 1070 µM) | solubility at 24 h ([5]; pH 5, fessif): 760 µg/mL (≈ 1150 µM) | solubility at 1 h ([5]; pH 6.5, fassif): 1.8 µg/mL (≈ 2.72 µM) | solubility at 2 h ([5]; pH 6.5, fassif): 1.9 µg/mL (≈ 2.88 µM) | solubility at 4 h ([5]; pH 6.5, fassif): 2.1 µg/mL (≈ 3.18 µM) | solubility at 24 h ([5]; pH 6.5, fassif): 2.5 µg/mL (≈ 3.78 µM) | pH of the filtrate ([5]; FaSSIF, 1 hour): 6.4 | pH of the filtrate ([5]; FaSSIF, 2 hours): 6.4 | pH of the filtrate ([5]; FaSSIF, 4 hours): 6.4 | pH of the filtrate ([5]; FaSSIF, 24 hours): 6.4 | pH of the filtrate ([5]; FeSSIF, 1 hour): 4.9 | pH of the filtrate ([5]; FeSSIF, 2 hours): 5.0 | pH of the filtrate ([5]; FeSSIF, 4 hours): 5.0 | pH of the filtrate ([5]; FeSSIF, 24 hours): 5.0 | pH of the filtrate ([5]; H2O, 1 hour): 6.7 | pH of the filtrate ([5]; H2O, 2 hours): 5.5 | pH of the filtrate ([5]; H2O, 4 hours): 6.7 | pH of the filtrate ([5]; H2O, 24 hours): 7.8 | pH of the filtrate ([5]; SGF, 1 hour): 3.6 | pH of the filtrate ([5]; SGF, 2 hours): 3.7 | pH of the filtrate ([5]; SGF, 4 hours): 3.7 | pH of the filtrate ([5]; SGF, 24 hours): 3.8
